The text below walks through data of paper PMC11434752, “Algerian Prickly Pear Seed By-Products: Fatty Acids Composition, Antioxidant, Enzyme Inhibitory Activities towards Tyrosinase, Urease, α-Amylase, and Cholinesterase, along with the Ability to Protect from Thermal Protein Denaturation” (Pharmaceuticals, 2024).

In this experiment the target is urease (Canavalia ensiformis, UniProt P07374). Description: biochemical.
Chain of urease (P07374 whole entry): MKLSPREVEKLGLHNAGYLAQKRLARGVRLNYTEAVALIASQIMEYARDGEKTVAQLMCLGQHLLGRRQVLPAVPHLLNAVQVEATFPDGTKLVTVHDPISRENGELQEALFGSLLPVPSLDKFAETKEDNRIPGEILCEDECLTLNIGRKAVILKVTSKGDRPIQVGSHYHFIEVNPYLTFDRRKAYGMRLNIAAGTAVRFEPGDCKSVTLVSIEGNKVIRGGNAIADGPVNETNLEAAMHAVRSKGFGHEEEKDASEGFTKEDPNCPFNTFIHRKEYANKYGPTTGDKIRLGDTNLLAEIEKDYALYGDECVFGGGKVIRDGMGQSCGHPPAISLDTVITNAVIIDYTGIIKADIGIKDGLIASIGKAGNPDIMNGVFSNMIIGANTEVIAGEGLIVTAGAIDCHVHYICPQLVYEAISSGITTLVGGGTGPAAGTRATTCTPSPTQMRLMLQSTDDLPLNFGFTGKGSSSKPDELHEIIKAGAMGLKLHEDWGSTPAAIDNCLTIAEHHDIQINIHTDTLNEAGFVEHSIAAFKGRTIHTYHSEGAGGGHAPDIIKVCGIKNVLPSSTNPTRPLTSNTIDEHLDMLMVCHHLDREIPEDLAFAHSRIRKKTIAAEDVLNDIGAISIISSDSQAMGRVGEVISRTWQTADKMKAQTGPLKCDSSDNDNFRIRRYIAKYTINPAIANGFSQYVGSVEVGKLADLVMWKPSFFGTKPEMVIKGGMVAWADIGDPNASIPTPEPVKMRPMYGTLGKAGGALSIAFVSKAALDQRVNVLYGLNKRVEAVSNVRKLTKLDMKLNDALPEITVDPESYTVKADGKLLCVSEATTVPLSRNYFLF

Compound `NC(N)=S` [Thiourea] gave an IC50 of 111 µM.

One may read the IC50 as the concentration that gives 50% inhibition.
